Experimental data as given in patent US12145947B2, “Pyrimidine based modulators and uses thereof” (Quanta Therapeutics, Inc., priority 2022, dated 2024).

Tests used:
[1] = tested on: GP2D cells (KRAS G12D), phospho-ERK; assay: pERK In Cell Western (ICW) assay, GP2D cells; type: cell-based; settings: Table 4, 3 hours
Summary of the method: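 GP2D (10,000 cells/well) and AGS (5,000 cells/well) cells were treated for 3 h at 37 °C with a 10-point, ½-log dilution series (top […]). They were then fixed and immunostained for phospho-ERK. pERK signal was normalised to DRAQ5 and expressed as % of DMSO, with IC50 from a 4-parameter fit.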

KRAS G12D/RAF1 = biological target: T1, KRAS G12D/RAF1 (Homo sapiens, UniProt P01116, G12D); assay: Protein-protein interaction (PPI) HTRF assay KRAS G12D/RAF1; type: binding
T1 construct: His6-MBP (N, cleaved yes); made in house; host or cells: E. coli
T1 sequence (P01116 with tags, fused parts or gaps isoform P01116-2 G12D): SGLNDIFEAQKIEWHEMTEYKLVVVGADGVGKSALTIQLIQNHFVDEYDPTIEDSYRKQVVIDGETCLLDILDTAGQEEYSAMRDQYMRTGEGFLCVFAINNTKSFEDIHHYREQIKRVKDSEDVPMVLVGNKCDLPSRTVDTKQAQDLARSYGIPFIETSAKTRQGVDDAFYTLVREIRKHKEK
Summary of the method: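 HTRF pairing of His-tagged RAF1 (52-131) plus Tb-cryptate donor with GppNHp-exchanged biotin-RAS (KRAS 1-169 wt/G12D/G12V, NRAS wt) plus streptavidin-d2 acceptor; compound sits 30 min with RAS first, then 1 h RT with RAF1. IC50 derived from 665/615 ratio, untagged RAF1 defining full inhibition.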

N#Cc1c(N2C[C@H]3CC[C@@H](C2)N3)nc(OCC2(CN3CC[S+]([O-])CC3)CC2)nc1N1CC2(CCc3sc(N)c(C#N)c32)C1 [Compound 71, 2-amino-1′-[5-cyano-6-[(1R,5S)-3,8-diazabicyclo[3.2.1]octan-3-yl]-2-[[1-[(1-oxo-1,4-thiazinan-4-yl)methyl]cyclopropyl]methoxy]pyrimidin-4-yl]spiro[5,6-dihydrocyclopenta[b]thiophene-4,3′-azetidine]-3-carbonitrile]
IC50 [1]: 100 to 1000 nM | IC50 (KRAS G12D/RAF1; Table 4): 1000 to 10000 nM

N#Cc1c(N2C[C@H]3CC[C@@H](C2)N3)nc(OCC2(CN3CCOCC3)CC2)nc1N1CC2(CSc3sc(N)c(C#N)c32)C1 [Compound 73, 5-amino-1′-[5-cyano-2-[[1-(morpholinomethyl)cyclopropyl]methoxy]-6-[(1R,5S)-3,8-diazabicyclo[3.2.1]octan-3-yl]pyrimidin-4-yl]spiro[2H-thieno[2,3-b]thiophene-3,3′-azetidine]-4-carbonitrile]
IC50 [1]: 1 to 10 nM | IC50 (KRAS G12D/RAF1; Table 4): 100 to 1000 nM

CN(C)CC1(COc2nc(N3CC4CCC(C3)N4)c(C#N)c(N3CC4(CCc5sc(N)c(C#N)c54)C3)n2)CC1(F)F (stereo not shown) [Compound 74A, 2-amino-1′-[5-cyano-6-(3,8-diazabicyclo[3.2.1]octan-3-yl)-2-[[(1*)-1-[(dimethylamino)methyl]-2,2-difluoro-cyclopropyl]methoxy]pyrimidin-4-yl]spiro[5,6-dihydrocyclopenta[b]thiophene-4,3′-azetidine]-3-carbonitrile]
IC50 ([1]; listed as 74.1): 1 to 10 nM | IC50 (KRAS G12D/RAF1; Table 4, listed as 74.1): < 100 nM

CN(C)CC1(COc2nc(N3CC4CCC(C3)N4)c(C#N)c(N3CC4(CCc5sc(N)c(C#N)c54)C3)n2)CC1(F)F (stereo not shown) [Compound 74B, 2-amino-1′-[5-cyano-6-(3,8-diazabicyclo[3.2.1]octan-3-yl)-2-[[(1*)-1-[(dimethylamino)methyl]-2,2-difluoro-cyclopropyl]methoxy]pyrimidin-4-yl]spiro[5,6-dihydrocyclopenta[b]thiophene-4,3′-azetidine]-3-carbonitrile]
IC50 ([1]; listed as 74.2): 1000 to 10000 nM | IC50 (KRAS G12D/RAF1; Table 4, listed as 74.2): 10000 to 100000 nM

N#Cc1c(N2CCCn3nc(-c4ccccn4)c(Cl)c3C2)nc(OCC2(CN3CCOCC3)CC2)nc1N1CC2(CCc3sc(N)c(C#N)c32)C1 [Compound 75, 2-amino-1′-[6-[3-chloro-2-(2-pyridyl)-4,6,7,8-tetrahydropyrazolo[1,5-a][1,4]diazepin-5-yl]-5-cyano-2-[[1-(morpholinomethyl)cyclopropyl]methoxy]pyrimidin-4-yl]spiro[5,6-dihydrocyclopenta[b]thiophene-4,3′-azetidine]-3-carbonitrile]
IC50 [1]: 10 to 100 nM | IC50 (KRAS G12D/RAF1; Table 4): 100 to 1000 nM

N#Cc1c(N2C[C@H]3CC[C@@H](C2)N3)nc(OCc2ccccc2)nc1N1CC2(CCc3sc(N)c(C#N)c32)C1 [Compound 76, 2-amino-1′-[2-benzyloxy-5-cyano-6-[(1R,5S)-3,8-diazabicyclo[3.2.1]octan-3-yl]pyrimidin-4-yl]spiro[5,6-dihydrocyclopenta[b]thiophene-4,3′-azetidine]-3-carbonitrile]
IC50 [1]: 10 to 100 nM | IC50 (KRAS G12D/RAF1; Table 4): 100 to 1000 nM

N#Cc1c(N2C[C@H]3CC[C@@H](C2)N3)nc(OCc2ccn[nH]2)nc1N1CC2(CCc3sc(N)c(C#N)c32)C1 [Compound 79, 2-amino-1′-[5-cyano-6-[(1R,5S)-3,8-diazabicyclo[3.2.1]octan-3-yl]-2-(1H-pyrazol-5-ylmethoxy)pyrimidin-4-yl]spiro[5,6-dihydrocyclopenta[b]thiophene-4,3′-azetidine]-3-carbonitrile]
IC50 [1]: 10 to 100 nM | IC50 (KRAS G12D/RAF1; Table 4): 100 to 1000 nM

CN1CCN(CC2(COc3nc(N4C[C@H]5CC[C@@H](C4)N5)c(C#N)c(N4CC5(CCc6sc(N)c(C#N)c65)C4)n3)CC2)CC1=O [Compound 80, 2-amino-1′-[5-cyano-2-[[1-[(4-methyl-3-oxo-piperazin-1-yl)methyl]cyclopropyl]methoxy]-6-[(1R,5S)-3,8-diazabicyclo[3.2.1]octan-3-yl]pyrimidin-4-yl]spiro[5,6-dihydrocyclopenta[b]thiophene-4,3′-azetidine]-3-carbonitrile]
IC50 [1]: 1 to 10 nM | IC50 (KRAS G12D/RAF1; Table 4): 100 to 1000 nM

CO[C@H]1CN(CC2(COc3nc(N4C[C@H]5CC[C@@H](C4)N5)c(C#N)c(N4CC5(CCc6sc(N)c(C#N)c65)C4)n3)CC2)C[C@@H]1F [Compound 81, 2-amino-1′-[5-cyano-6-[(1R,5S)-3,8-diazabicyclo[3.2.1]octan-3-yl]-2-[[1-[[(3S,4S)-3-fluoro-4-methoxy-pyrrolidin-1-yl]methyl]cyclopropyl]methoxy]pyrimidin-4-yl]spiro[5,6-dihydrocyclopenta[b]thiophene-4,3′-azetidine]-3-carbonitrile]
IC50 [1]: 10 to 100 nM | IC50 (KRAS G12D/RAF1; Table 4): 1000 to 10000 nM

Cc1nc(-c2nn3c(c2Cl)CN(c2nc(OC[C@@]45CCCN4C[C@H](F)C5)nc(N4CC5(CCc6sc(N)c(C#N)c65)C4)c2C#N)CCC3)n(C)n1 [Compound 85, 2-amino-1′-[6-[3-chloro-2-(2,5-dimethyl-1,2,4-triazol-3-yl)-4,6,7,8-tetrahydropyrazolo[1,5-a][1,4]diazepin-5-yl]-5-cyano-2-[[(2R,8S)-2-fluoro-1,2,3,5,6,7-hexahydropyrrolizin-8-yl]methoxy]pyrimidin-4-yl]spiro[5,6-dihydrocyclopenta[b]thiophene-4,3′-azetidine]-3-carbonitrile]
IC50 [1]: 10 to 100 nM | IC50 (KRAS G12D/RAF1; Table 4): 10000 to 100000 nM

N#Cc1c(N2C[C@H]3CC[C@@H](C2)N3)nc(OCC2(CN3CCOCC3)CC2)nc1N1CC2(C=CCc3sc(N)c(C#N)c32)C1 [Compound 86, 2-amino-1′-[5-cyano-2-[[1-(morpholinomethyl)cyclopropyl]methoxy]-6-[(1R,5S)-3,8-diazabicyclo[3.2.1]octan-3-yl]pyrimidin-4-yl]spiro[7H-benzothiophene-4,3′-azetidine]-3-carbonitrile]
IC50 [1]: 1 to 10 nM | IC50 (KRAS G12D/RAF1; Table 4): < 100 nM

CN(C)CC1(COc2nc(N3CCCn4nc(C(=O)N(C)C)c(Cl)c4C3)c(C#N)c(N3CC4(CCc5sc(N)c(C#N)c54)C3)n2)CC1(F)F (stereo not shown) [Compound 87, 5-[6-(2-amino-3-cyano-spiro[5,6-dihydrocyclopenta[b]thiophene-4,3′-azetidine]-1′-yl)-5-cyano-2-[[1-[(dimethylamino)methyl]-2,2-difluoro-cyclopropyl]methoxy]pyrimidin-4-yl]-3-chloro-N,N-dimethyl-4,6,7,8-tetrahydropyrazolo[1,5-a][1,4]diazepine-2-carboxamide]
IC50 [1]: 1 to 10 nM | IC50 (KRAS G12D/RAF1; Table 4): 1000 to 10000 nM

C[C@H](Oc1nc(N2C[C@H]3CC[C@@H](C2)N3)c(C#N)c(N2CC3(CCc4sc(N)c(C#N)c43)C2)n1)[C@@H]1CCCN1C [Compound 88, 2-amino-1′-[5-cyano-6-[(1R,5S)-3,8-diazabicyclo[3.2.1]octan-3-yl]-2-[(1S)-1-[(2S)-1-methylpyrrolidin-2-yl]ethoxy]pyrimidin-4-yl]spiro[5,6-dihydrocyclopenta[b]thiophene-4,3′-azetidine]-3-carbonitrile]
IC50 [1]: 1000 to 10000 nM | IC50 (KRAS G12D/RAF1; Table 4): 10000 to 100000 nM

N#Cc1c(N2C[C@H]3CC[C@@H](C2)N3)nc(OCC2(CN3C[C@@H]4C[C@H]3CO4)CC2)nc1N1CC2(CCc3sc(N)c(C#N)c32)C1 [Compound 89, 2-amino-1′-[5-cyano-6-[(1R,5S)-3,8-diazabicyclo[3.2.1]octan-3-yl]-2-[[1-[[(1S,4S)-2-oxa-5-azabicyclo[2.2.1]heptan-5-yl]methyl]cyclopropyl]methoxy]pyrimidin-4-yl]spiro[5,6-dihydrocyclopenta[b]thiophene-4,3′-azetidine]-3-carbonitrile]
IC50 [1]: 10 to 100 nM | IC50 (KRAS G12D/RAF1; Table 4): 100 to 1000 nM
